The source made the active and inactive calls. No cut-off for these calls is given here.
Tested on: Fibroblast
Test: Cytotoxicity against L-strain mouse fibroblasts at 0.05 mg/ml
Type: functional, cell-based

COc1c(O)cc2oc(-c3ccc(O)cc3)cc(=O)c2c1O
Activity: Active

Source: ChEMBL document CHEMBL1151395, “Cytotoxic Flavones From Centaurea urvillei” (J Nat Prod, 1982)
